# Test results as given in the kinase profiling compilation of Christmann-Franck et al. (2016).
# How the values were obtained:
# Assay in all cases: KINOMEscan competition binding
# Details in all cases: compound 10.0 µM
# PRKCH (human) = PRKCH (human) (UniProt P24723)
# SRPK2 (human) = SRPK2 (human) (UniProt P78362)
# CaMK1 (human) = CaMK1 (human) (UniProt Q14012)
# RPS6KA5 KD1 (human) = RPS6KA5 KD1 (human) (UniProt O75582)
# TLK1 (human) = TLK1 (human) (UniProt Q9UKI8)
# RPS6KA6 KD2 (human) = RPS6KA6 KD2 (human) (UniProt Q9UK32)
# MAP3K1 (human) = MAP3K1 (human) (UniProt Q13233)
# PIK3C2B (human) = PIK3C2B (human) (UniProt O00750)
# CDK8 (human) = CDK8 (human) (UniProt P49336)
# TGFBR2 (human) = TGFBR2 (human) (UniProt P37173)
# MAP4K4 (human) = MAP4K4 (human) (UniProt O95819)
# ANKK1 (human) = ANKK1 (human) (UniProt Q8NFD2)
# EPHA2 (human) = EPHA2 (human) (UniProt P29317)
# MAP3K3 (human) = MAP3K3 (human) (UniProt Q99759)
# NEK1 (human) = NEK1 (human) (UniProt Q96PY6)
# TGFBR1 (human) = TGFBR1 (human) (UniProt P36897)
# NUAK2 (human) = NUAK2 (human) (UniProt Q9H093)
# TAOK3 (human) = TAOK3 (human) (UniProt Q9H2K8)
# DAPK1 (human) = DAPK1 (human) (UniProt P53355)
# PRKG1 (human) = PRKG1 (human) (UniProt Q13976)
# STK17A (human) = STK17A (human) (UniProt Q9UEE5)
# RIOK2 (human) = RIOK2 (human) (UniProt Q9BVS4)
# CSNK2A1 (human) = CSNK2A1 (human) (UniProt P68400)
# MAPK13 (human) = MAPK13 (human) (UniProt O15264)
# CHEK2 (human) = CHEK2 (human) (UniProt O96017)
# MKNK1 (human) = MKNK1 (human) (UniProt Q9BUB5)
# SIK2 (human) = SIK2 (human) (UniProt Q9H0K1)
# MAP3K4 (human) = MAP3K4 (human) (UniProt Q9Y6R4)
# FLT1 (human) = FLT1 (human) (UniProt P17948)
# PDGFRA (human) = PDGFRA (human) (UniProt P16234)
# PRKG2 (human) = PRKG2 (human) (UniProt Q13237)
# RPS6KA2 KD1 (human) = RPS6KA2 KD1 (human) (UniProt Q15349)
# RPS6KA3 KD1 (human) = RPS6KA3 KD1 (human) (UniProt P51812)
# FGR (human) = FGR (human) (UniProt P09769)
# WEE2 (human) = WEE2 (human) (UniProt P0C1S8)
# NTRK3 (human) = NTRK3 (human) (UniProt Q16288)
# PRKACA (human) = PRKACA (human) (UniProt P17612)
# IKBKB (human) = IKBKB (human) (UniProt O14920)
# CDK15 (human) = CDK15 (human) (UniProt Q96Q40)
# HCK (human) = HCK (human) (UniProt P08631)
# Chain of RPS6KA2 KD1 (human) (Q15349 whole entry, looked up): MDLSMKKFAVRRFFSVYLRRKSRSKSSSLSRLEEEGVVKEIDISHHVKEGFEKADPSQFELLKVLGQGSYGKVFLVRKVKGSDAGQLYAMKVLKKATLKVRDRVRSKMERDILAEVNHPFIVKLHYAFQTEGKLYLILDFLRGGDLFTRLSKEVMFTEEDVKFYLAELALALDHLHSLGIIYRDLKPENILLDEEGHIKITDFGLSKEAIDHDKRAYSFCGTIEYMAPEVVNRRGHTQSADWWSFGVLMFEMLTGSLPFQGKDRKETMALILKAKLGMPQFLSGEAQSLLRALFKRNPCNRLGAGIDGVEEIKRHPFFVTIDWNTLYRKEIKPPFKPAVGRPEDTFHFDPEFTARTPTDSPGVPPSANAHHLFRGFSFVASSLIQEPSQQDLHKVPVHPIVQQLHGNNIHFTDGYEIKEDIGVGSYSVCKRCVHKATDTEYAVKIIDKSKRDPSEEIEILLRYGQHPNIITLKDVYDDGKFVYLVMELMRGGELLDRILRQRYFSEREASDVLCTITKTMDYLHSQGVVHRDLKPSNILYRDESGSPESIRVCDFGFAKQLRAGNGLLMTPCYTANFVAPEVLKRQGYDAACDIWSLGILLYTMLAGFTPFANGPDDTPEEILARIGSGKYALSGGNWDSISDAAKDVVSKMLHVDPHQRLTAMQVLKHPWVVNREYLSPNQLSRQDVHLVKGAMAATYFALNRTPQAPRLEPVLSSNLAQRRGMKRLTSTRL
# Chain of TLK1 (human) (Q9UKI8 whole entry, looked up): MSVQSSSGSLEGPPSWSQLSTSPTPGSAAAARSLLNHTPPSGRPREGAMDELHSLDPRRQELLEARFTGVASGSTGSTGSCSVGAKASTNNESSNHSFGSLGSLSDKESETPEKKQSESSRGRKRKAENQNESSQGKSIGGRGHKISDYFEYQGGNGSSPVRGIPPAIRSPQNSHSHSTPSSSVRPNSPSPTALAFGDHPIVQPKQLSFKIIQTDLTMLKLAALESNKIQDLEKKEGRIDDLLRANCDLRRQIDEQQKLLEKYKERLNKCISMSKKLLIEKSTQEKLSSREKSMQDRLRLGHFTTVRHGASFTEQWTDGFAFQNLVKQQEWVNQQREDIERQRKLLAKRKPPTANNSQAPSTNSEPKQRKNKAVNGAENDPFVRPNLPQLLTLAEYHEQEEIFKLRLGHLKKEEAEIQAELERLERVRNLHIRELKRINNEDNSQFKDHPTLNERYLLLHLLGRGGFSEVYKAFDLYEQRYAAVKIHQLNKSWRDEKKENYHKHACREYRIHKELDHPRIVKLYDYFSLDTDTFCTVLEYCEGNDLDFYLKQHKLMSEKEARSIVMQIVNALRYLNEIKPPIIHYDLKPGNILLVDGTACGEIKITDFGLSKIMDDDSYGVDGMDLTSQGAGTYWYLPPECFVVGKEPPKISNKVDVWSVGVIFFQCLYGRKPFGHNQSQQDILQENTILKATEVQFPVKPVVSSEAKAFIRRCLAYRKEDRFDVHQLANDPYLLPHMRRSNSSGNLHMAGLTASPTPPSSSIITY
# Chain of MAP3K1 (human) (Q13233 whole entry, looked up): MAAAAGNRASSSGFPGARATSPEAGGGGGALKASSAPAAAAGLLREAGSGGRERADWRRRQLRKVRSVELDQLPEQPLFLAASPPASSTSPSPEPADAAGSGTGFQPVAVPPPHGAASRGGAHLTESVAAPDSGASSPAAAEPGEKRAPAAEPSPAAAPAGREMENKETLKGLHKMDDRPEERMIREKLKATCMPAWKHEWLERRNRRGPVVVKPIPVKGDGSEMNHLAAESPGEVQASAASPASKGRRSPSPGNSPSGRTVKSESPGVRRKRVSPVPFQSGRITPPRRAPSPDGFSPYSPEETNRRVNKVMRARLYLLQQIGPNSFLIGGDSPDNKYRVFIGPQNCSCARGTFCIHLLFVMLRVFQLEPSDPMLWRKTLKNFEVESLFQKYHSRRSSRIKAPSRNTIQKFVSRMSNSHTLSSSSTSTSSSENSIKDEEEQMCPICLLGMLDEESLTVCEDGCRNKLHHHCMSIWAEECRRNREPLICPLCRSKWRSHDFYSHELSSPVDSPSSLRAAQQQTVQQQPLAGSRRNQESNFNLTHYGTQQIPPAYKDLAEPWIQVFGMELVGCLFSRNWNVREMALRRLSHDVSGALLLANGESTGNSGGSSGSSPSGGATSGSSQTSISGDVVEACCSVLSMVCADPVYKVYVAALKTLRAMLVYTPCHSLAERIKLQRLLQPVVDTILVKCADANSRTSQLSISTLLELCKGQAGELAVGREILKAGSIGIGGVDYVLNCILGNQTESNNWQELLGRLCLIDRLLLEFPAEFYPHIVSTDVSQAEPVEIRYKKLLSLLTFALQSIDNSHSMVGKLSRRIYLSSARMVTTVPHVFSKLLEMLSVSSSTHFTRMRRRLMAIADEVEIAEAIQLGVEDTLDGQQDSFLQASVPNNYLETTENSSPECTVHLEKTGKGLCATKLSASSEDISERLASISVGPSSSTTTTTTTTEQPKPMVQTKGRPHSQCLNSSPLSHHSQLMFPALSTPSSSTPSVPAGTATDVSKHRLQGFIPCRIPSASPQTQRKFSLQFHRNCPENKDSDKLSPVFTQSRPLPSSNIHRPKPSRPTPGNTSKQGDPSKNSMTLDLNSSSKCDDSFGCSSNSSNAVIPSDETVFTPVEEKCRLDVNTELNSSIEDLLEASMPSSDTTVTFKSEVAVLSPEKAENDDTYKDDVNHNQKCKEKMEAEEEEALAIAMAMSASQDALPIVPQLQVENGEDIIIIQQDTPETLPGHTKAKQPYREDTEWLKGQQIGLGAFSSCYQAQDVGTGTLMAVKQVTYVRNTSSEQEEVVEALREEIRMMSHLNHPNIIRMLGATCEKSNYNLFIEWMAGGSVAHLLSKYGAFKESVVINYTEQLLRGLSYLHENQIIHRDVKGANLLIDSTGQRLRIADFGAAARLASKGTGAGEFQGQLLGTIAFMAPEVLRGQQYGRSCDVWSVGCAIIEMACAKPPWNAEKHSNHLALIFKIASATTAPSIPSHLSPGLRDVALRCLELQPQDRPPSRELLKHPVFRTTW
# Chain of RPS6KA5 KD1 (human) (O75582 whole entry, looked up): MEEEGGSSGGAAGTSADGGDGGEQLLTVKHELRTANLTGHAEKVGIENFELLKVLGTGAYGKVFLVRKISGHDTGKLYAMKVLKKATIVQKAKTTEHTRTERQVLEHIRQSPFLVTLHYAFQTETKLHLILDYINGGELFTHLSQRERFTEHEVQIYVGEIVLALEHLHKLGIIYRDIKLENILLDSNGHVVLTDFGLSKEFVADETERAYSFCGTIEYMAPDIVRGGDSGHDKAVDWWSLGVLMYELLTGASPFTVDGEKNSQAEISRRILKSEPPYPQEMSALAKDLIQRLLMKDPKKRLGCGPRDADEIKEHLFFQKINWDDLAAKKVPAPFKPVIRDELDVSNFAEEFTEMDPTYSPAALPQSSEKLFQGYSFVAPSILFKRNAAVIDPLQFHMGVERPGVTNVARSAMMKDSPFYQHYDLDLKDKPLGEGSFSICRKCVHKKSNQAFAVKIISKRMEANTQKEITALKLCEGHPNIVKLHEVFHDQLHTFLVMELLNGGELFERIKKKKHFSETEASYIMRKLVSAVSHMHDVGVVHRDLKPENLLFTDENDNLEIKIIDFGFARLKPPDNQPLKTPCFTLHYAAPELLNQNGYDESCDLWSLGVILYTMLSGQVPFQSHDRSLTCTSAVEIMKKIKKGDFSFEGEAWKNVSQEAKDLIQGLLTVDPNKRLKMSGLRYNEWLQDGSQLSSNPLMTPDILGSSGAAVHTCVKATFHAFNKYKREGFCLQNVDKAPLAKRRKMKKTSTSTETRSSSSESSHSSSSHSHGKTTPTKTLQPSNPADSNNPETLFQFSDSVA
# Chain of NUAK2 (human) (Q9H093 whole entry, looked up): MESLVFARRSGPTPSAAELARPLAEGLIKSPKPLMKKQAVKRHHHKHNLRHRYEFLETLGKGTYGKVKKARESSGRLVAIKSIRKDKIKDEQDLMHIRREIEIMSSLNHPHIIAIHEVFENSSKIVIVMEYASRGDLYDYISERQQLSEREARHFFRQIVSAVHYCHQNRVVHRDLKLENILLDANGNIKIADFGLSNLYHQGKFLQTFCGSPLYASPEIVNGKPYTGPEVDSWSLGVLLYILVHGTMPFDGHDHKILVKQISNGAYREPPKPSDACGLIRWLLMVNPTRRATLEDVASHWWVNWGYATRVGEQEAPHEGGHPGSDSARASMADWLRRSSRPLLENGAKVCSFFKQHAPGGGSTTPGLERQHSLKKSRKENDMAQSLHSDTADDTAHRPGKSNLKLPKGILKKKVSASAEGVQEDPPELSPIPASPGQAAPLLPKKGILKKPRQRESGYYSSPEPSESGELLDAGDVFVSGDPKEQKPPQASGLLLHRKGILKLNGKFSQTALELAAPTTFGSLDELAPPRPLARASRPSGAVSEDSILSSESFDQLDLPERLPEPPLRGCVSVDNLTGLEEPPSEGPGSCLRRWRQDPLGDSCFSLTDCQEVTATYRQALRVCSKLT
# Chain of MKNK1 (human) (Q9BUB5 whole entry, looked up): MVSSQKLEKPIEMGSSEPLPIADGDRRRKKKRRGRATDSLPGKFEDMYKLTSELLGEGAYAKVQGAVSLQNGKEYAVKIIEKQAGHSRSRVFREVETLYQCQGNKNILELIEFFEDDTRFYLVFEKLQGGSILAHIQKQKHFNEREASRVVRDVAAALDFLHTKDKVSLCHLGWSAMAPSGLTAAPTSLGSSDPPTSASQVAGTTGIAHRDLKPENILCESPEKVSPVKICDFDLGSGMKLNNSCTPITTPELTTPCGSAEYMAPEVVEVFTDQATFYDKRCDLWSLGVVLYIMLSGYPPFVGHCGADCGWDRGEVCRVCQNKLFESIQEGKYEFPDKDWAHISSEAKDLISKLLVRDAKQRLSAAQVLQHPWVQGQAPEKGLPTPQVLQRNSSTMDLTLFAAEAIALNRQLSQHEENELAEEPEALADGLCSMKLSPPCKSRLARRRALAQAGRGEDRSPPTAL
SMILES,"kinase still bound, per cent of control (PRKCH (human))","kinase still bound, per cent of control (SRPK2 (human))","kinase still bound, per cent of control (CaMK1 (human))","kinase still bound, per cent of control (RPS6KA5 KD1 (human))","kinase still bound, per cent of control (TLK1 (human))","kinase still bound, per cent of control (RPS6KA6 KD2 (human))","kinase still bound, per cent of control (MAP3K1 (human))","kinase still bound, per cent of control (PIK3C2B (human))","kinase still bound, per cent of control (CDK8 (human))","kinase still bound, per cent of control (TGFBR2 (human))","kinase still bound, per cent of control (MAP4K4 (human))","kinase still bound, per cent of control (ANKK1 (human))","kinase still bound, per cent of control (EPHA2 (human))","kinase still bound, per cent of control (MAP3K3 (human))","kinase still bound, per cent of control (NEK1 (human))","kinase still bound, per cent of control (TGFBR1 (human))","kinase still bound, per cent of control (NUAK2 (human))","kinase still bound, per cent of control (TAOK3 (human))","kinase still bound, per cent of control (DAPK1 (human))","kinase still bound, per cent of control (PRKG1 (human))",other results
COc1cc(N2CCN(C)CC2)ccc1Nc1ncc2c(n1)N(C)c1ccccc1C(=O)N2C,100%,100%,100%,100%,100%,4.9%,100%,100%,100%,100%,100%,100%,100%,100%,100%,100%,14%,2%,100%,100%,"kinase still bound, per cent of control (STK17A (human)): 100%; kinase still bound, per cent of control (RIOK2 (human)): 100%; kinase still bound, per cent of control (CSNK2A1 (human)): 100%; kinase still bound, per cent of control (MAPK13 (human)): 100%; kinase still bound, per cent of control (CHEK2 (human)): 30%; kinase still bound, per cent of control (MKNK1 (human)): 100%; kinase still bound, per cent of control (SIK2 (human)): 100%; kinase still bound, per cent of control (MAP3K4 (human)): 100%; kinase still bound, per cent of control (FLT1 (human)): 100%; kinase still bound, per cent of control (PDGFRA (human)): 100%; kinase still bound, per cent of control (PRKG2 (human)): 100%; kinase still bound, per cent of control (RPS6KA2 KD1 (human)): 100%; kinase still bound, per cent of control (RPS6KA3 KD1 (human)): 100%; kinase still bound, per cent of control (FGR (human)): 100%; kinase still bound, per cent of control (WEE2 (human)): 100%; kinase still bound, per cent of control (NTRK3 (human)): 100%; kinase still bound, per cent of control (PRKACA (human)): 100%; kinase still bound, per cent of control (IKBKB (human)): 100%; kinase still bound, per cent of control (CDK15 (human)): 100%; kinase still bound, per cent of control (HCK (human)): 100%"
CN(C)C/C=C/C(=O)Nc1ccc(C(=O)Nc2cccc(Nc3nccc(-c4cccnc4)n3)c2)cc1,100%,100%,94%,100%,92%,97%,100%,100%,78%,50%,18%,8.1%,97%,93%,63%,100%,30%,37%,58%,100%,"kinase still bound, per cent of control (STK17A (human)): 6.4%; kinase still bound, per cent of control (RIOK2 (human)): 9.6%; kinase still bound, per cent of control (CSNK2A1 (human)): 12%; kinase still bound, per cent of control (MAPK13 (human)): 100%; kinase still bound, per cent of control (CHEK2 (human)): 86%; kinase still bound, per cent of control (MKNK1 (human)): 42%; kinase still bound, per cent of control (SIK2 (human)): 90%; kinase still bound, per cent of control (MAP3K4 (human)): 71%; kinase still bound, per cent of control (FLT1 (human)): 46%; kinase still bound, per cent of control (PDGFRA (human)): 4%; kinase still bound, per cent of control (PRKG2 (human)): 76%; kinase still bound, per cent of control (RPS6KA2 KD1 (human)): 83%; kinase still bound, per cent of control (RPS6KA3 KD1 (human)): 62%; kinase still bound, per cent of control (FGR (human)): 86%; kinase still bound, per cent of control (WEE2 (human)): 100%; kinase still bound, per cent of control (NTRK3 (human)): 65%; kinase still bound, per cent of control (PRKACA (human)): 100%; kinase still bound, per cent of control (IKBKB (human)): 65%; kinase still bound, per cent of control (CDK15 (human)): 100%; kinase still bound, per cent of control (HCK (human)): 100%"
COc1ccc(N(C(=O)Oc2c(C)cccc2C)c2ccnc(Nc3ccc(N4CCN(C)CC4)cc3)n2)c(OC)c1,35%,42%,83%,100%,45%,67%,32%,11%,100%,16%,3.7%,100%,0%,0.75%,76%,0.75%,9.8%,4%,73%,100%,"kinase still bound, per cent of control (STK17A (human)): 100%; kinase still bound, per cent of control (RIOK2 (human)): 83%; kinase still bound, per cent of control (CSNK2A1 (human)): 66%; kinase still bound, per cent of control (MAPK13 (human)): 100%; kinase still bound, per cent of control (CHEK2 (human)): 78%; kinase still bound, per cent of control (MKNK1 (human)): 98%; kinase still bound, per cent of control (SIK2 (human)): 7.6%; kinase still bound, per cent of control (MAP3K4 (human)): 23%; kinase still bound, per cent of control (FLT1 (human)): 11%; kinase still bound, per cent of control (PDGFRA (human)): 9.9%; kinase still bound, per cent of control (PRKG2 (human)): 92%; kinase still bound, per cent of control (RPS6KA2 KD1 (human)): 27%; kinase still bound, per cent of control (RPS6KA3 KD1 (human)): 37%; kinase still bound, per cent of control (FGR (human)): 0.15%; kinase still bound, per cent of control (WEE2 (human)): 100%; kinase still bound, per cent of control (NTRK3 (human)): 100%; kinase still bound, per cent of control (PRKACA (human)): 1.6%; kinase still bound, per cent of control (IKBKB (human)): 93%; kinase still bound, per cent of control (CDK15 (human)): 94%; kinase still bound, per cent of control (HCK (human)): 0.15%"
